Experimental data taken from patent publication US20160075682A1, “INHIBITORS OF NICOTINAMIDE PHOSPHORIBOSYLTRANSFERASE, COMPOSITIONS, PRODUCTS AND USES THEREOF” (UNIVERSITÀ DEGLI STUDI DEL PIEMONTE ORIENTALE "AMEDEO …, priority 2013, published 2016).

Assays:
SH-SY5Y, HeLa = experiment: MTT cell proliferation assay and trypan blue count (cell viability); format: cell-based; settings: cells treated for 48 and 72 hours; read-out: IC50 values (inhibition of cellular proliferation, MTT assay and trypan blue assay)
In short: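 SH-SY5Y and HeLa cells, 8×10^5 per well, exposed 48 and 72 h with final DMSO ≤0.5%. Viability by MTT (250 μg/ml, 1 h, A570 after isopropanol/HCl) and by trypan blue count. IC50 from dose-response curves for some compounds.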

NAMPT = biological target: T1, NAMPT (Homo sapiens, UniProt P43490); experiment: Direct inhibition of NAMPT enzymatic activity (Cyclex NAMPT colorimetric Assay Kit); format: biochemical; settings: as assessed with a cycling assay
T1 construct: endogenous in cells; host or cells: SH-SY5Y and HeLa
Experimental: Determination of the direct activity of compounds on NAMPT was performed using a commercial kit, Cyclex NAMPT colorimetric Assay Kit.

[1] = Microsomal stability with human liver microsomes; format: in vitro ADME; settings: 50 μM substrate, 1.0 mg/mL protein, 60 minutes at 37° C., pH 7.4
Experimental: (§1) Male Wistar rat liver microsomes (RLM), (protein concentration: 25 mg/ml determined using the Omura and Sato method, total P450: 0.64 nmol/mg protein) were used throughout this study and prepared using an internal protocol. The cryopreserved pooled human liver microsomes (HLM), (pooled mixed sex, ten individual donors, protein concentration: 20 mg/ml, total P450: 0.36 nmol/mg) were purchased from BD Gentest™ (Woburn, Mass.) and used throughout this study.
(§2) The standard incubation mixture (1 ml final volume), was carried out in a 50 mM TRIS (Tris[hydroxymethyl]aminomethane) buffer (pH 7.4) containing 10 μl of acetonitrile (1% of total volume), and 50 μM substrate compounds. After pre-equilibration of the mixture, an appropriate volume of RLM or HLM suspension was added to give a final protein concentration of 1.0 mg/mL. The mixture was shaken for 60 minutes at 37° C. Control incubations were carried out without microsomes. Each incubation was stopped by addition of 1 ml ice-cold acetonitrile, vortexed and centrifuged at 11,000 r.p.m. for 5 min. The supernatants were analysed by LC-DAD-UV and LC-ESI-MS systems to determine the metabolic stability (% substrate residue) and the structure of metabolites respectively (Table 1).
(§3) A Shimadzu HPLC system (Shimadzu, Kyoto, Japan), consisting of two LC-10AD Vp module pumps, an SLC-10A Vp system controller, an SIL-10AD Vp autosampler, and a DGU-14-A on-line degasser were used for the analysis. Chromatographic separation was performed on a Phenomenex Luna C18(2) 150×4.6 mm (5 μm) (Phenomenex srl, Castel Bolognese, Italy) as a stationary phase protected by a C18 SecurityGuard (Phenomenex srl, Castel Bolognese, Italy). The SPD-M10Avp photodiode array detector was used to detect the analytes. LC-Solution 1.24 software was used to process the chromatograms. Aliquots (20 μL) of supernatants obtained from incubations were injected onto the HPLC system and eluted with a mobile phase (flow rate 1.0 mL/min) consisting of a A: 0.5% formic acid solution, B: acetonitrile/methanol 8:2. A Thermo Finningan LCQ Deca XP plus system equipped with a quaternary pump, a Surveyor AS autosampler, a Surveyor photodiode array detector and a vacuum degasser was used for LC/MS analyses (Thermo Electron Corporation, Waltham, Mass.). All the chromatographic separations were performed on a Phenomenex Luna C18(2)150×2 mm (4 μm) (kept at a 35° C.) as a stationary phase protected by a C18 SecurityGuard (Phenomenex srl, Castel Bolognese, Italy). Aliquots (2.0 μl) of supernatants obtained from incubations were injected onto the system and eluted with a mobile phase (flow rate 0.2 ml/min) consisting of a A: 0.2% formic acid solution, B: acetonitrile/methanol 8:2. The eluate was injected into the electrospray ion source (ESI) and MS and MS^n spectra were acquired and processed using Xcalibur® software. The operating conditions on the ion trap mass spectrometer were as follows: Positive mode, spray voltage, 5.30 kV; source current, 80 μA; capillary temperature, 350° C.; capillary voltage, 21.00 V; tube lens offset, 15.00 V; multipole 1 offset, −5.75 V; multipole 2 offset, −9.00 V; sheath gas flow (N2), 55 Auxiliary Units.

[2] = Metabolites generated from hydrolyses in RLM or HLM incubations (LC-ESI-MS); format: in vitro ADME, rat, human; settings: RLM or HLM incubation, 60 minutes at 37° C.
Experimental: as §1, §2, §3

T1 sequence (P43490 whole entry): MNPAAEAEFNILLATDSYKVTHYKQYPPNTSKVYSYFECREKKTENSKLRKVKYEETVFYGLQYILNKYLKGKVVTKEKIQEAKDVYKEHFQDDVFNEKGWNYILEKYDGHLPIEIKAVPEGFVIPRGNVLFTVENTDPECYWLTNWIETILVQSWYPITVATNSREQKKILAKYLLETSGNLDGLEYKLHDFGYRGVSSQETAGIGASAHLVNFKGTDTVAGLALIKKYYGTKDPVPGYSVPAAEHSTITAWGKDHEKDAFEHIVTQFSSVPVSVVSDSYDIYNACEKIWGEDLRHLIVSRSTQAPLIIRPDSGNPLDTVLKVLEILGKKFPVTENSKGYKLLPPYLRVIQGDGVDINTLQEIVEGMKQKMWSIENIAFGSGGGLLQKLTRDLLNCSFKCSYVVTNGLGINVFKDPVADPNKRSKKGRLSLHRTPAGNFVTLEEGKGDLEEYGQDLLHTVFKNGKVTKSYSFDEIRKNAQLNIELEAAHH

Row | IC50 (SH-SY5Y, HeLa) [nM] | inhibition of the enzymatic activity of NAMPT (NAMPT) | HLM stability % substrate residue (area peak) [1] [%] | Metabolites generated from hydrolyses [2] | Structure (SMILES)
1 | < 300 | able to inhibit | >96 | no | c1ccc(-c2ccccc2OCCCCCCn2cc(-c3cccnc3)nn2)cc1 [3-(1-(6-([1,1′-biphenyl]-2-yloxy)hexyl)-1H-1,2,3-triazol-4-yl)pyridine]
2 | < 300 | able to inhibit | >99 | no | O=C(NCCCCCCCn1cc(-c2cccnc2)nn1)c1ccccc1-c1ccccc1 [N-(7-(4-(pyridin-3-yl)-1H-1,2,3-triazol-1-yl)heptyl)-[1,1′-biphenyl]-2-carboxamide]
